Literature values in paper PMC9301952 (ACS Omega, 2022).

Tested on: mouse
Settings: behavioral assay used to predict psychedelic drug activity

| Compound | activity in the mouse head twitch assay |
| --- | --- |
| CNCCc1c[nH]c2cccc(OP(=O)(O)O)c12 [baeocystin, 4-phosphoryloxy-N-methyltryptamine] | neither compound is active |
| CNCCc1c[nH]c2cccc(O)c12 [norpsilocin, 4-hydroxy-N-methyltryptamine] | neither compound is active |
